Assay results from patent publication US10906878B2, “Kinase inhibitors for the treatment of disease” (Dana-Farber Cancer Institute, Inc., priority 2013, dated 2021).
Like-named read-outs stand apart in the source and are kept apart here.

How the values were obtained:
EGFR Del Ba/F3 cells = EGFR Del Ba/F3 cells (Homo sapiens, UniProt P00533, cells depend on it, form not given); assay: Ba/F3 cell growth inhibition (MTS assay), EGFR Del; format: cell-based; conditions: for IC50: Del, read-out: EGFR Ba/F3 cells IC 50 (nM) Assay 1 Del; for EGFR activity (% Control, 100 nM drug) Del: Table F
Description: (§1) The specific cDNAs encoding the oncogenic alterations (EGFR: Del 19, L858R, L718Q, L844V, Del/T790M, L858R/T790M, Del 19/L718Q, Del 19/L844V, Del 19/T790M/L718Q and L858R/T790M/L718Q; FGFR: TEL-FGFR1, TEL-FGFR2, TEL-FGFR1 V561M, TEL-FGFR2 V561M; ALK: EML4-ALK; ROS1: CD74-ROS1) were cloned into the pDNA-Dual (BD Biosciences) vector using standard molecular biology techniques. Mutations were introduced using site-directed mutagenesis (Agilent) with mutant specific primers according to the manufacturer's instructions. All constructs were confirmed by DNA sequencing. The constructs were introduced into Ba/F3 cells using retroviral infection. Polyclonal cell lines were established by puromycin selection and subsequently cultured in the absence of interleukin-3 (IL-3). Uninfected Ba/F3 cells or cell lines expressing green fluorescent protein (GFP) were used as controls.
(§2) Growth and inhibition of growth was assessed by MTS assay. This assay, a colorimetric method for determining the number of viable cells, is based on the bioreduction of 3-(4,5-dimethylthiazol-2-yl)-5-(3-carboxymethoxyphenyl)-2-(4-sulfophenyl)-2H-tetrazolium (MTS) by cells to a formazan product that is soluble in cell culture medium, can be detected spectrophotometrically and was performed according to the manufacturer's recommended conditions. Ba/F3 cells were exposed to treatment for 72 hours and the number of cells used per experiment determined empirically to assure linear growth kinetics over that time period. All experimental points were set up in six to twelve wells and all experiments were repeated at least three times. […] The curves were fitted using a non-linear regression model with a sigmoidal dose response.

[1] = target: EGFR Del/T790M Ba/F3 cells (Homo sapiens, UniProt P00533, T790M, cells depend on it, form not given); assay: Ba/F3 cell growth inhibition (MTS assay), EGFR Del/T790M; format: cell-based; conditions: for IC50: Del/T790M, read-out: EGFR Ba/F3 cells IC 50 (nM) Assay 1 Del/T790M
Description: as §1, §2

EGFR L858R Ba/F3 cells = EGFR L858R Ba/F3 cells (Homo sapiens (Human), UniProt P00533, L858R); assay: Ba/F3 cell growth inhibition (MTS assay), EGFR L858R; format: cell-based; conditions: for IC50: L858R, read-out: EGFR Ba/F3 cells IC 50 (nM) Assay 1 L858R
Description: as §1, §2

[2] = target: EGFR Del/T790M/L718Q Ba/F3 cells (Homo sapiens, UniProt P00533, L718Q/T790M, cells depend on it, form not given); format: cell-based
Description: as §1, §2

KIF5B/Ret_V804M = assay: Ba/F3 cell growth inhibition (MTS assay), KIF5B/Ret_V804M; format: cell-based
Procedure: as §2

[3] = target: EGFR L718Q/L858R Ba/F3 cells (Homo sapiens (Human), UniProt P00533, L718Q/L858R); assay: Ba/F3 cell growth inhibition (MTS assay), EGFR L858R/L718Q; format: cell-based; conditions: for IC50: L718Q/L858R; for EGFR activity (% Control, 100 nM drug) L858R/L718Q: Table F
[4] = target: EGFR L858R/T790M/L718Q Ba/F3 cells (Homo sapiens (Human), UniProt P00533, L718Q/L858R/T790M); assay: Ba/F3 cell growth inhibition (MTS assay), EGFR L858R/T790M/L718Q; format: cell-based; conditions: for IC50: Assay 1, T/L/L718Q, read-out: EGFR Ba/F3 cells IC 50 (nM) Assay 1 T/L/L718Q; for EGFR activity (% Control, 100 nM drug) L858R/T790M/L718Q: Table F
Description: as §1, §2

[5] = target: EGFR Wild type vIII Ba/F3 cells (Homo sapiens (Human), UniProt P00533, DELINS30-297G); assay: Ba/F3 cell growth inhibition (MTS assay), EGFR Wild type vIII; format: cell-based; conditions: Assay 1, read-out: EGFR Ba/F3 cells IC 50 (nM) Assay 1 Wild type vIII
[6] = target: EGFR L858R/T790M Ba/F3 cells (Homo sapiens (Human), UniProt P00533, L858R/T790M); assay: Ba/F3 cell growth inhibition (MTS assay), EGFR L858R/T790M; format: cell-based; conditions: for IC50: Assay 1, L858R/T790M, read-out: EGFR Ba/F3 cells IC 50 (nM) Assay 1 L858R/T790M
Description: as §1, §2

[7] = Microsome Stability Mouse; format: in vitro ADME; conditions: mouse microsomes
[8] = Assay 1, read-out: EGFR Ba/F3 cells IC 50 (nM) Assay 1 L718Q/L858R

| Compound | EGFR activity (% Control, 1.0 μM drug) Assay 1 Del (EGFR Del Ba/F3 cells; 1.0 μM drug, Assay 1) [% Control] | EGFR activity (% Control, 1.0 μM drug) Assay 2 Del (EGFR Del Ba/F3 cells; 1.0 μM drug, Assay 2) [% Control] | IC50 (EGFR Del Ba/F3 cells; Assay 1) [nM] | EGFR activity (% Control, 1.0 μM drug) Assay 1 Del/T790M ([1]; 1.0 μM drug, Assay 1) [% Control] | EGFR activity (% Control, 1.0 μM drug) Assay 2 Del/T790M ([1]; 1.0 μM drug, Assay 2) [% Control] | IC50 ([1]; Assay 1) [nM] | EGFR activity (% Control, 1.0 μM drug) Assay 1 L858R (EGFR L858R Ba/F3 cells; 1.0 μM drug, Assay 1) [% Control] | EGFR activity (% Control, 1.0 μM drug) Assay 2 L858R (EGFR L858R Ba/F3 cells; 1.0 μM drug) [% Control] | IC50 (EGFR L858R Ba/F3 cells; Assay 1) [nM] | EGFR activity (% Control, 1.0 μM drug) Assay 1 Del/T790M/L718Q ([2]; 1.0 μM drug, Assay 1) [% Control] | EGFR activity (% Control, 1.0 μM drug) Assay 2 Del/T790M/L718Q ([2]; 1.0 μM drug, Assay 2) [% Control] | EGFR activity (% Control, 1.0 μM drug) Assay 1 KIF5B/Ret_V804M (KIF5B/Ret_V804M) [% Control] | IC50 [4] [nM] | IC50 [5] [nM] | IC50 [6] [nM] | EGFR activity (% Control, 100 nM drug) L858R (EGFR L858R Ba/F3 cells; Table F) [% Control] | EGFR activity (% Control, 100 nM drug) L858R/L718Q [3] [% Control] | EGFR activity (% Control, 100 nM drug) L858R/T790M/L718Q [4] [% Control] | EGFR activity (% Control, 100 nM drug) L858R/T790M ([6]; Table F) [% Control] | also measured |
| --- | --- | --- | --- | --- | --- | --- | --- | --- | --- | --- | --- | --- | --- | --- | --- | --- | --- | --- | --- | --- |
| C=CC(=O)Nc1cccc(N(C(=O)Nc2ccccc2)c2cc(Nc3ccc(N4CCN(C)CC4)cc3OC)ncn2)c1 [Compound 1A, N-(3-(1-(6-((2-methoxy-4-(4-methylpiperazin-1-yl)phenyl)amino)pyrimidin-4-yl)-3-phenylureido)phenyl)acrylamide] | 4 | 0 | 6.33 | 3 | 1 | 19 | 2 | 5 | 1.56 | 63 | 83 | 65 | 178 | 16.4 | 3.1 |  |  |  |  | EGFR Ba/F3 cells Assay 1 Del/T/L718Q % inhibition 1.0 uM ([2]; Assay 1, Del/T/L718Q, 1.0 uM): 47%; IC50 [3, 8]: 49.8 nM; IC50 ([3]; Assay 2, read-out: EGFR Ba/F3 cells IC 50 (nM) Assay 2 L718Q/L858R): 149 nM; Microsome Stability Mouse min [7]: 14 min |
| C=CC(=O)Nc1cccc(N(C(=O)NCc2cccs2)c2cc(Nc3ccc(N4CCOCC4)cc3OC)ncn2)c1 [Compound 55A] |  |  | 2 |  |  | 15.9 |  |  | 0.5 |  |  |  | 657 | 2.3 | 2.4 |  |  |  |  | Microsome Stability Mouse min [7]: 1.8 min |
| C=CC(=O)Nc1ccc(OC)c(Nc2cc(N(C(=O)Nc3c(C)cccc3C)c3ccc(N4CCN(CC)CC4)cc3)ncn2)c1 [Compound 9A] | 3 | 4 |  | 2 | 39 |  | 2 | 2 |  | 90 | 86 | 93 |  |  |  |  |  |  |  |  |
| C=CC(=O)Nc1cccc(N(C(=O)Nc2ccccc2Cl)c2cc(Nc3ccc(N4CCN(C)CC4)cc3OC)ncn2)c1 [Compound 11A] | 3 | 4 |  | 1 | 5 |  | 2 | 3 |  | 84 | 82 | 103 |  |  |  |  |  |  |  |  |
| C=CC(=O)Nc1ccc(OC)c(N(C(=O)Nc2c(C)cccc2C)c2cc(Nc3ccc(N4CCN(CC)CC4)cc3)ncn2)c1 [Compound 8A] | 3 | 72 |  | 1 | 100 |  | 2 | 10 |  | 113 | 93 | 108 |  |  |  |  |  |  |  |  |
| C=CC(=O)Nc1cccc(Oc2nc(Nc3ccc(N4CCN(C)CC4)cc3OC)ncc2Cl)c1 [WZ4002, reference compound] |  |  |  |  |  |  | 2 | 2 |  |  |  | 93 |  |  |  | 2 | 94 | 104 | 3 | EGFR activity (% Control, 1.0 μM drug) Assay 1 Del (EGFR Del Ba/F3 cells): 3 % Control; EGFR activity (% Control, 1.0 μM drug) Assay 2 Del (EGFR Del Ba/F3 cells): 6 % Control; EGFR activity (% Control, 100 nM drug) DEL/T790M [1]: 2 % Control; EGFR activity (% Control, 100 nM drug) Del/T790M [1]: 6 % Control; EGFR activity (% Control, 1.0 μM drug) Assay 1 Del/T790M [1]: 1 % Control; EGFR activity (% Control, 1.0 μM drug) Assay 2 Del/T790M [1]: 3 % Control; EGFR activity (% Control, 100 nM drug) L858R (EGFR L858R Ba/F3 cells; Table G): 0 % Control; EGFR activity (% Control, 1.0 μM drug) Assay 1 Del/T790M/L718Q [2]: 91 % Control; EGFR activity (% Control, 1.0 μM drug) Assay 2 Del/T790M/L718Q [2]: 85 % Control; EGFR activity (% Control, 100 nM drug) L858R/T790M ([6]; Table G): 30 % Control |
| C=CC(=O)Nc1cccc(N(C(=O)N[C@@H](C)c2ccccc2)c2cc(Nc3ccc(N4CCN(C)CC4)cc3OC)ncn2)c1 [Compound 34A] |  |  | 19.7 |  |  | 60.4 |  |  | 0.51 |  |  |  | 312 | 10.1 | 20 |  |  |  |  | Microsome Stability Mouse min [7]: 9.4 min |
| C=CC(=O)Nc1cccc(N(C(=O)NCc2ccccc2)c2cc(Nc3ccc(N4CCN(C)CC4)cc3OC)nc(Cl)n2)c1 [Compound 78A] |  |  | 23.9 |  |  | 68.2 |  |  | 2.66 |  |  |  | 2240 | 19.9 | 41.8 |  |  |  |  |  |
| Cc1ccc(C(=O)Nc2ccc(CN3CCN(C)CC3)c(C(F)(F)F)c2)cc1C#Cc1cnc2cccnn12 [Ponatinib] |  |  |  |  |  |  |  |  |  | 48 |  |  |  |  |  |  |  |  |  | EGFR activity (% Control, 1.0 μM drug) Assay 1 Del (EGFR Del Ba/F3 cells): 17 % Control; EGFR activity (% Control, 1.0 μM drug) Assay 1 Del/T790M [1]: 79 % Control; EGFR activity (% Control, 1.0 μM drug) Assay 1 L858R (EGFR L858R Ba/F3 cells): 98 % Control; KIF5B/Ret_V804M Ba/F3 cell growth (% control, 1.0 μM drug) (KIF5B/Ret_V804M; Assay 1): 2 % Control |
| C=CC(=O)Nc1cccc(N(C(=O)NCc2ccccc2)c2cc(NC)ncn2)c1 [Compound 15A] |  |  | 91.9 |  |  | 842 |  |  | 17.7 |  |  |  | 3260 |  | 376 | 3 | 81 | 86 | 48 | EGFR activity (% Control, 100 nM drug) Del (EGFR Del Ba/F3 cells): 47 % Control; EGFR activity (% Control, 100 nM drug) DEL/T790M ([1]; 100 nM drug, Table F): 107 % Control; IC50 [3, 8]: 2150 nM |
| C=CC(=O)Nc1cccc(Nc2cc(N(C)C(=O)Nc3ccccc3)ncn2)c1 [Compound 13A] |  |  |  |  |  |  |  |  |  |  |  |  |  |  |  | 3 | 90 | 89 | 71 | EGFR activity (% Control, 100 nM drug) Del (EGFR Del Ba/F3 cells): 13 % Control; EGFR activity (% Control, 100 nM drug) DEL/T790M ([1]; 100 nM drug, Table F): 90 % Control |
| C=CC(=O)Nc1ccc(OC)c(Nc2cc(N(C)C(=O)Nc3ccccc3)ncn2)c1 [Compound 74A] |  |  | 5.16 |  |  | 278 |  |  | 0.572 |  |  |  | 780 |  | 215 |  |  |  |  | IC50 [3, 8]: 243 nM |
| C=CC(=O)Nc1ccc(OC)c(Nc2cc(N(C)C(=O)Nc3ccccc3)ncn2)c1 [Compound 12A] |  |  |  |  |  |  |  |  |  |  |  |  |  |  |  | 1 | 47 | 84 | 48 | EGFR activity (% Control, 100 nM drug) Del (EGFR Del Ba/F3 cells): 0 % Control; EGFR activity (% Control, 100 nM drug) DEL/T790M ([1]; 100 nM drug, Table F): 117 % Control |
